# Data from patent US20240132431A1, “METHOD FOR ALKYLATING ACIDIC FUNCTIONAL GROUP” (Chugai Seiyaku Kabushiki Kaisha, priority 2021, published 2024).
# Target: T1, Bcl-2 protein (Recombinant Human Bcl-2 Protein) (Homo sapiens, UniProt P10415)
# T1 construct: purchased Novus NBP2-34889
# Assay: Binding evaluation of mixture library compounds to Bcl-2 using AS-MS (affinity selection mass spectrometry)
# Conditions: for ASMS ratio (%) n = 1 / ASMS ratio (%) n = 2: ASMS Ratio(%)=(A−C)/B×100; for ASMS ratio (%) n = 1: replicate n = 1; for ASMS ratio (%) n = 2: replicate n = 2
# In short: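 Affinity selection MS: Bcl-2 20 μM + 1200-cpd mixture, […]/cpd, Tris pH 7.4 buffer w/ Tween-20, DTT; 1 h 23° C dark; P-2 spin SEC; MeCN/MeOH extraction; RP LC/MS. ASMS Ratio(%) = (A−C)/B×100.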
# [1] = AS-MS on the mixture of 1200 library compounds
# T1 sequence (P10415 whole entry): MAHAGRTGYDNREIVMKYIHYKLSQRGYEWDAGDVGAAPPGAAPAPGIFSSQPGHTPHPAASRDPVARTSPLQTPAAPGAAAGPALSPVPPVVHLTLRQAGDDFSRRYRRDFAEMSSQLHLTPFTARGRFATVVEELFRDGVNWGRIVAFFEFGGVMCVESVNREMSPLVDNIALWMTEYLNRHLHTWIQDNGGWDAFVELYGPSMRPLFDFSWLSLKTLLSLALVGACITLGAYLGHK
"ASMS ratio (%) n = 1 (AS-MS, mixture library, Bcl-2)","ASMS ratio (%) n = 2 (AS-MS, mixture library, Bcl-2)",ASMS ratio (%) (n = 1),ASMS ratio (%) (n = 2),SMILES,other results
,,,,"CCOc1cncc(C#Cc2ccccc2C(=O)N2CCN(c3ccc(C(=O)Nc4ccc(OC)cc4)cc3)CC2)c1 [B1O030-01, 4-[4-[2-[2-(5-Ethoxypyridin-3-yl)ethynyl]benzoyl]piperazin-1-yl]-N-(4-methoxyphenyl)benzamide]",ASMS ratio (%) n = 1 [1]: 1.8%; ASMS ratio (%) n = 2 [1]: −2.0%
,,,,"CCOc1cccc(C#Cc2ccccc2CN2CCN(c3ccc(C(=O)N(C)CC45CC6CC(CC(C6)C4)C5)cc3)CC2)c1 [B3A069-01, N-(1-Adamantylmethyl)-4-[4-[[2-[2-(3-ethoxyphenyl)ethynyl]phenyl]methyl]piperazin-1-yl]-N-methylbenzamide]",ASMS ratio (%) n = 2 [1]: 12872.1%
9.7%,0.4%,,,"CCOc1cccc(-c2ccc(CN3CCN(c4ccc(C(=O)NS(=O)(=O)CC56CC7CC(CC(C7)C5)C6)cc4)CC3)cc2C)c1 [B2A047-01, N-(1-Adamantylmethylsulfonyl)-4-[4-[[4-(3-ethoxyphenyl)-3-methylphenyl]methyl]piperazin-1-yl]benzamide]",
,,0.0%,0.0%,"CCOc1cccc(C#Cc2ccccc2C(=O)N2CCN(c3ccc(C(=O)NS(=O)(=O)CCC(F)(F)F)nn3)CC2)c1 [B2N007-01, 6-[4-[2-[2-(3-Ethoxyphenyl)ethynyl]benzoyl]piperazin-1-yl]-N-(3,3,3-trifluoropropylsulfonyl)pyridazine-3-carboxamide]",
,,17.7%,−1.3%,"CCOc1cccc(-c2ccccc2CCC(=O)N2CCN(c3ccc(C(=O)NS(=O)(=O)c4ccc(NCCSc5ccccc5)c(C(F)(F)F)c4)nn3)CC2)c1 [B2R011-01, 6-[4-[3-[2-(3-Ethoxyphenyl)phenyl]propanoyl]piperazin-1-yl]-N-[4-(2-phenylsulfanylethylamino)-3-(trifluoromethyl)phenyl]sulfonylpyridazine-3-carboxamide]",
0.0%,0.0%,,,"CCOc1cccc(-c2ccc(C(=O)N3CCN(c4ccc(C(=O)NS(C)(=O)=O)cc4)CC3)cc2C)c1 [B2I025-01, 4-[4-[4-(3-Ethoxyphenyl)-3-methylbenzoyl]piperazin-1-yl]-N-methylsulfonylbenzamide]",
3.4%,8.9%,,,"CCOc1cncc(C#Cc2cc(C(=O)N3CCN(c4ccc(C(=O)NS(=O)(=O)CC56CC7CC(CC(C7)C5)C6)nn4)CC3)cc(C(F)(F)F)c2)c1 [B2A020-01, N-(1-Adamantylmethylsulfonyl)-6-[4-[3-[2-(5-ethoxypyridin-3-yl)ethynyl]-5-(trifluoromethyl)benzoyl]piperazin-1-yl]pyridazine-3-carboxamide]",
,,0.0%,0.0%,"CCOc1cccc(C#Cc2cc(C(=O)N3CCN(c4ccc(C(=O)NS(C)(=O)=O)cc4)CC3)cc(C(F)(F)F)c2)c1 [B2I041-01, 4-[4-[3-[2-(3-Ethoxyphenyl)ethynyl]-5-(trifluoromethyl)benzoyl]piperazin-1-yl]-N-methylsulfonylbenzamide]",
,,0.0%,0.0%,"CCOc1cccc(-c2ccccc2CCC(=O)N2CCN(c3ccc(C(=O)NS(=O)(=O)C(C)(C)C)nn3)CC2)c1 [B2L011-01, N-tert-Butylsulfonyl-6-[4-[3-[2-(3-ethoxyphenyl)phenyl]propanoyl]piperazin-1-yl]pyridazine-3-carboxamide]",
2.6%,0.2%,,,"CCOc1cccc(C#Cc2cc(C(=O)N3CCN(c4ccc(C(=O)NS(=O)(=O)c5ccc(NCCSc6ccccc6)c([N+](=O)[O-])c5)cc4)CC3)cc(C(F)(F)F)c2)c1 [B2Q041-01, 4-[4-[3-[2-(3-Ethoxyphenyl)ethynyl]-5-(trifluoromethyl)benzoyl]piperazin-1-yl]-N-[3-nitro-4-(2-phenylsulfanylethylamino)phenyl]sulfonylbenzamide]",
